From patent EP0171702A1, “Benzoxazinone derivatives, preparation and use” (BEECHAM GROUP PLC, priority 1984, dated 1986) come the findings set out here.

Where two headings read alike, the source gives them in different places.

For test [1], the system named is Male Sprague-Dawley rats. Briefly: Effect on energy expenditure of rats. The note with it: percentage of rate of rats dosed with water; for response vs control in vivo at 8.2 mg/kg / response vs control in vivo at 3.6 mg/kg / response vs control in vivo at 7.1 mg/kg / response vs control in vivo at 32.6 mg/kg / response vs control in vivo at 4.1 mg/kg / response vs control in vivo at 8.9 mg/kg / response vs control in vivo at 21.6 mg/kg / response vs control in vivo at 3.7 mg/kg / response vs control in vivo at 4 mg/kg / response vs control in vivo at 4.3 mg/kg: Rattus norvegicus, po; for response vs control in vivo at 8.2 mg/kg: 8.2 mg/kg p.o.; for response vs control in vivo at 7.1 mg/kg: 7.1 mg/kg p.o.; for response vs control in vivo at 32.6 mg/kg: 32.6 mg/kg p.o.; for response vs control in vivo at 4.1 mg/kg: 4.1 mg/kg p.o.; for response vs control in vivo at 8.9 mg/kg: 8.9 mg/kg p.o.; for response vs control in vivo at 21.6 mg/kg: 21.6 mg/kg p.o.; for response vs control in vivo at 3.7 mg/kg: 3.7 mg/kg p.o.; for response vs control in vivo at 4 mg/kg: 4.0 mg/kg p.o.; for response vs control in vivo at 4.3 mg/kg: 4.3 mg/kg p.o. The format is in vivo. On the procedure:
Water was provided ad lib at all times. The compounds were administered orally in water to 3 or 4 rats. A further 4 rats were dosed orally with water. The rats were placed in boxes through which air was drawn and the oxygen content of the air leaving the boxes was measured. The energy expenditure of the rats was calculated for 3 hours and for 21 hours after dosing from the volume of air leaving the boxes and its oxygen content, following the principles described by J.B. de V. Weir, J. Physiol. (London) 109, 1-9 (1949). The results are expressed as a percentage of the rate of energy expenditure of the rats dosed with water.

For test [2], the system named is spontaneously beating right atrium. As to the kind of experiment: Isolated rat atria: rate of the spontaneously beating right atrium. The note with it: for Emax: read-out: Rate Intrinsic Activity; for EC50: molar concentration producing 50% of the compound's own maximum response. On the procedure:
(§1) Sprague-Dawley male rats (300-400g) are killed and the right and left atria dissected out independently and mounted on a combined tissue holder/electrode. […] The rate of the spontaneously beating right atrium (via an isometric transducer and a ratemeter) and the tension of the electrically paced left atrium (via an isometric transducer) are recorded on a M19 chart recorder.
(§2) After an initial stabilization period, the tissues are exposed to a maximal concentration of isoprenaline (10-^7M). The tissues are then washed several times until rate and tension return to baseline level. A dose-response curve to the test compound is then carried out.
(§3) Responses to each concentration of test compound are expressed as a percentage of the maximal responses to isoprenaline. Results are given in the form of (a) intrinsic activity (maximal effect of test compound with respect to isoprenaline maximum, i.e. isoprenaline intrinsic activity = 1) and (b) EC50 (the molar concentration at which the test compound produces 50% of its own maximum response).

For test [3], the system named is electrically paced left atrium. Briefly: Isolated rat atria: tension of the electrically paced left atrium. The note with it: for EC50: molar concentration producing 50% of the compound's own maximum response; for Emax: read-out: Tension Intrinsic Activity. The method, then:
as §1, §2, §3

Where [4] appears, read: 3 h, 0-3h after dosing, read-out: Mean Energy Expenditure 0-3h.
Setting [5] is: 21 h, 0-21h after dosing, read-out: Mean Energy Expenditure 0-21h.
Setting [6] is: Rattus norvegicus, organ bath at 29°C, maximal effect relative to isoprenaline maximum (isoprenaline = 1).
[7] abbreviates: Rattus norvegicus, organ bath at 29°C.
The mark [8] stands for this setting: Krebs solution at 32°C, maximal effect relative to isoprenaline maximum (isoprenaline = 1).
Where [9] appears, read: Rattus norvegicus, Krebs solution at 32°C, maximal effect relative to isoprenaline maximum (isoprenaline = 1).
Setting [10] is: Rattus norvegicus, Krebs solution at 32°C.

For orientation: EC50 means the midpoint of the concentration-response curve. As to `CC(COc1ccc2c(c1)NC(=O)CO2)NCC(O)COc1cccc2[nH]ccc12` (centres unmarked) [Example 19, 6-[2-[2-hydroxy-3-(indol-4-yloxy)propylamino]-2-methyl-ethoxy]-2H-1,4-benzoxazin-3-(4H)-one], the response vs control in vivo at 8.2 mg/kg in test [1] (setting [4]) stood at 116%; in test [1] (setting [5]) it was 114%. For the same compound, the Emax in test [2] (setting [6]) is 54%. In addition, in test [2] (setting [7]), the concentration for a half-maximal effect (EC50) is 130 nM.
With `CC(Cc1ccc2c(c1)NC(=O)CO2)NCC(O)c1cccc(Cl)c1` (centres unmarked) [8 (14:86), 6-[2-[2-(3-Chlorophenyl)-2-hydroxyethylamino]-2-methylethyl]-2H-1,4-benzoxazin-3-(4H)-one], the response vs control in vivo at 3.6 mg/kg came to 125% in test [1] (3 h, 3.6 mg/kg p.o., 0-3h after dosing, read-out: Mean Energy Expenditure 0-3h) and 105% in test [1] (21 h, 3.6 mg/kg p.o., 0-21h after dosing, read-out: Mean Energy Expenditure 0-21h). Also, the “Rate Intrinsic Activity” value in test [2] (setting [8]) is recorded as 0.16. Further, the EC50 in test [2] (Krebs solution at 32°C) amounted to 750 nM; in test [3] (Krebs solution at 32°C) it was 3800 nM. Moreover, the “Tension Intrinsic Activity” value in test [3] (setting [8]) stood at 0.20.
For the compound `CC(Cc1ccc2c(c1)NC(=O)CO2)NCC(O)COc1ccccc1O` (centres unmarked) [Example 9, 6-[2-[3-(2-hydroxyphenoxy)-2-hydroxypropylamino]-2-methylethyl]-2H-1,4-benzoxazin-3-(4H)-one], the Emax was determined as 15% in test [2] (setting [9]) and 12% in test [3] (setting [9]). For the same compound, the half-maximal effective concentration (EC50) in test [2] (setting [10]) was 30 nM; in test [3] (setting [10]), 28 nM.
Regarding `CC(Cc1ccc2c(c1)NC(=O)CO2)NCC(O)COc1ccccc1` (centres unmarked) [Example 11, 6-[2-[3-Phenoxy-2-hydroxypropylamino]-2-methylethyl]-2H-1,4-benzoxazin-3-(4H)-one], the response vs control in vivo at 7.1 mg/kg in test [1] (setting [4]) was 119%; in test [1] (setting [5]), 108%. The Emax in test [2] (setting [9]) was 32%; in test [3] (setting [9]), 11%. In addition, the EC50 was determined as 53 nM in test [2] (setting [10]) and 100 nM in test [3] (setting [10]).
On to `CC(Cc1ccc2c(c1)NC(=O)CO2)NCC(O)c1ccccc1` (centres unmarked) [Example 10, 6-[2-[2-Phenyl-2-hydroxyethylamino]-2-methylethyl]-2H-1,4-benzoxazin-3-(4H)-one], for which the response vs control in vivo at 32.6 mg/kg in test [1] (setting [4]) amounted to 122%; in test [1] (setting [5]), 101%.
For the compound `CCc1cccc2cc(C(O)CNC(C)COc3ccc4c(c3)NC(=O)CO4)oc12` (centres unmarked) [Example 20, 6-[2-[2-(7-Ethylbenzofuran-2-yl)-2-hydroxyethylamino]-2-methylethoxy]-2H-1,4-benzoxazin-3-(4H)-one], the values for the response vs control in vivo at 4.1 mg/kg in test [1] (setting [4]) and in test [1] (setting [5]) were 110% and 107%, respectively. The figures for the Emax in test [2] (setting [6]) and in test [3] (setting [6]) were 95% and 113%, respectively. Besides, the values for the half-maximal effective concentration (EC50) in test [2] (setting [7]) and in test [3] (setting [7]) were 63 nM and 130 nM, respectively.
In the case of `CC(COc1ccc2c(c1)N(C)C(=O)CO2)NCC(O)c1cccc(Cl)c1` (centres unmarked) [Example 12, 6-[2-[2-(3-Chlorophenyl)-2-hydroxyethylamino]-2-methylethoxy]-4-methyl-2H-1,4-benzoxazin-3-(4H)-one hemifumarate], the response vs control in vivo at 8.9 mg/kg in test [1] (setting [4]) is 109%; in test [1] (setting [5]) it was 97%. Besides, the values for the Emax in test [2] (setting [6]) and in test [3] (setting [6]) were 98% and 90%, respectively. Moreover, the half-maximal effective concentration (EC50) worked out at 29 nM in test [2] (setting [7]) and 790 nM in test [3] (setting [7]).
On to `CC(Cc1ccc2c(c1)N(C)C(=O)CO2)NCC(O)c1cccc(Cl)c1` (centres unmarked) [Example 13, 6-[2-[2-(3-Chlorophenyl)-2-hydroxyethylamino]-2-methylethyl]-4-methyl-2H-1,4-benzoxazin-3-(4H)-one hemifumarate], for which the Emax in test [2] (setting [6]) was 64%; in test [3] (setting [6]), 54%. Also, the results for the concentration for a half-maximal effect (EC50) in test [2] (setting [7]) and in test [3] (setting [7]) were 250 nM and 15000 nM, respectively.
Turning to `CC(Cc1ccc2c(c1)NC(=O)CO2)NCC(O)c1cccc(Cl)c1` (centres unmarked) [8 (82:18), 6-[2-[2-(3-chlorophenyl)-2-hydroxyethylamino]-2-methylethyl]-2H-1,4-benzoxazin-3-(4H)-one], the “Mean Energy Expenditure 0-3h” value in test [1] (3.6 mg/kg p.o., 0-3h after dosing) is given as 122%. In addition, the “Mean Energy Expenditure 0-21h” value in test [1] (3.6 mg/kg p.o., 0-21h after dosing) is 106%. Besides, the 50% effective concentration (EC50) in test [2] (Krebs solution at 32°C) amounted to 240 nM; in test [3] (setting [10]), 3200 nM. Besides, the Emax in test [2] (setting [9]) came to 29%; in test [3] (setting [9]), 12%.
On to `CC(COc1ccc2c(c1)NC(=O)CO2)NCC(O)COc1cc(O)cc(O)c1` (centres unmarked) [Example 21, 6-[2-[3-(3,5-Dihydroxyphenoxy)-2-hydroxypropylamino]-2-methylethoxy]-2H-1,4-benzoxazin-3-(4H)-one hemifumarate], for which the figures for the response vs control in vivo at 21.6 mg/kg in test [1] (setting [4]) and in test [1] (setting [5]) were 110% and 105%, respectively. Besides, in test [2] (setting [6]), the Emax worked out at 85%. The same compound displayed an EC50 in test [2] (setting [7]) of 16 nM.
For the compound `CC(COc1ccc2c(c1)NC(=O)CO2)NCC(O)COc1ccccc1` (centres unmarked) [Example 18, 6-[2-(2-Hydroxy-3-phenoxypropylamino)-2-methylethoxy]-2H-1,4-benzoxazin-3-(4H)-one], the response vs control in vivo at 3.7 mg/kg in test [1] (setting [4]) was 155%; in test [1] (setting [5]) it was 109%. Also, the Emax in test [2] (setting [9]) is 52%. In test [2] (setting [10]), this compound showed an EC50 of 11 nM.
On to `CC(COc1ccc2c(c1)NC(=O)CO2)NCC(O)COc1ccccc1O` (centres unmarked) [Example 5, 6-[2-[3-(2-hydroxyphenoxy)-2-hydroxypropylamino]-2-methylethoxy]-2H-1,4-benzoxazin-3-(4H)-one hemifumarate], for which the figures for the response vs control in vivo at 8.9 mg/kg in test [1] (setting [4]) and in test [1] (setting [5]) were 111% and 100%, respectively. Moreover, the Emax in test [2] (setting [9]) turned out to be 18%. Moreover, the concentration for a half-maximal effect (EC50) in test [2] (setting [10]) came to 35 nM.
For `COc1ccccc1OCC(O)CNC(C)COc1ccc2c(c1)NC(=O)CO2` (centres unmarked) [Example 17, 6-[2-[3-(2-Methoxyphenoxy)-2-hydroxypropylamino]-2-methyl-ethoxy]-2H-1,4-benzoxazin-3-(4H)-one], the results for the response vs control in vivo at 4 mg/kg in test [1] (setting [4]) and in test [1] (setting [5]) were 112% and 103%, respectively. Moreover, the Emax in test [2] (setting [6]) was found to be 91%. For the same compound, in test [2] (setting [7]), the EC50 stood at 8.6 nM.
Take `C=CCOc1ccccc1OCC(O)CNC(C)COc1ccc2c(c1)NC(=O)CO2` (centres unmarked) [Example 16, 6-[2-[3-(2-Allyloxyphenoxy)-2-hydroxypropylamino]-2-methyl-ethoxy]-2H-1,4-benzoxazin-3-(4H)-one]: the response vs control in vivo at 4.3 mg/kg in test [1] (setting [4]) came to 115%; in test [1] (setting [5]), 101%.
